Experimental data from patent publication US20150125403A1, “PERSONAL CARE AND COSMETIC COMPOSITIONS COMPRISING RENEWABLY-BASED, BIODEGRADABLE 1,3-PROPANEDIOL” (DuPont Tate & Lyle Bio Products Company, LLC, priority 2006, published 2015).

Key:
[1] = viscosity of the composition; assay type: physicochemical; conditions: cosmetic emulsion of Example 1 made with the named glycol instead of Bio-PDO
Experimental: Brookfield Model RV−Spindle 5 at 20 rpm for 1 minute (factor×200)
Brookfield Model RV−Spindle T at 5 rpm for 1 minute (factor×10,000)

[2] = system: human skin; assay: second human skin patch test; assay type: in vivo; conditions: 25, 50, and 75% (pH 7)
Source text: (§1) Based on these studies PDO is not expected to be a skin irritant or sensitizer in humans.

[3] = system: human skin; assay: human skin patch test with approximately 100 subjects; assay type: in vivo; conditions: 5, 25, and 50% PDO
Source text: as §1

Question: Which “viscosity of the cosmetic emulsion containing the glycol” value (“viscosity” below) [1] does the source give for `CC(CO)CO` [2-methyl-1,3-propanediol] here?
Answer: 9600 cps

Question: For `CC(O)CO` (centres unmarked) [propylene glycol, 1,2-propanediol], which “patch test irritation and cumulative irritation of human skin” value [2] is on record?
Answer: patch test irritants and cumulative irritants for human skin

Question: What about the “viscosity” value [1] of the same compound?
Answer: 12600 cps

Question: With `CC(O)CCO` (centres unmarked) [1,3-butylene glycol] as the compound, how does the “viscosity” value [1] read?
Answer: 6000 cps

Question: With `OCCCO` [PDO, 1,3-propanediol] as the compound, how does the “skin reactions indicative of irritation or sensitization” value [3] read?
Answer: did not cause any skin reactions indicative of irritation or sensitization
